Drawing on patent publication US9040701B2, “Apaf-1 inhibitor compounds” (LABORATORIOS SALVAT, S.A., priority 2009, dated 2015), this text covers inhibition for 10 molecules.

This experiment has as its target T1, Recombinant Apaf-1 produced in insect cells (rApaf-1) (Homo sapiens, UniProt O14727).
T1 construct: made in house; host or cells: insect cells (Apaf-1); E. coli (procaspase-9); cytochrome c purchased from Sigma
T1 sequence (O14727 1-1248): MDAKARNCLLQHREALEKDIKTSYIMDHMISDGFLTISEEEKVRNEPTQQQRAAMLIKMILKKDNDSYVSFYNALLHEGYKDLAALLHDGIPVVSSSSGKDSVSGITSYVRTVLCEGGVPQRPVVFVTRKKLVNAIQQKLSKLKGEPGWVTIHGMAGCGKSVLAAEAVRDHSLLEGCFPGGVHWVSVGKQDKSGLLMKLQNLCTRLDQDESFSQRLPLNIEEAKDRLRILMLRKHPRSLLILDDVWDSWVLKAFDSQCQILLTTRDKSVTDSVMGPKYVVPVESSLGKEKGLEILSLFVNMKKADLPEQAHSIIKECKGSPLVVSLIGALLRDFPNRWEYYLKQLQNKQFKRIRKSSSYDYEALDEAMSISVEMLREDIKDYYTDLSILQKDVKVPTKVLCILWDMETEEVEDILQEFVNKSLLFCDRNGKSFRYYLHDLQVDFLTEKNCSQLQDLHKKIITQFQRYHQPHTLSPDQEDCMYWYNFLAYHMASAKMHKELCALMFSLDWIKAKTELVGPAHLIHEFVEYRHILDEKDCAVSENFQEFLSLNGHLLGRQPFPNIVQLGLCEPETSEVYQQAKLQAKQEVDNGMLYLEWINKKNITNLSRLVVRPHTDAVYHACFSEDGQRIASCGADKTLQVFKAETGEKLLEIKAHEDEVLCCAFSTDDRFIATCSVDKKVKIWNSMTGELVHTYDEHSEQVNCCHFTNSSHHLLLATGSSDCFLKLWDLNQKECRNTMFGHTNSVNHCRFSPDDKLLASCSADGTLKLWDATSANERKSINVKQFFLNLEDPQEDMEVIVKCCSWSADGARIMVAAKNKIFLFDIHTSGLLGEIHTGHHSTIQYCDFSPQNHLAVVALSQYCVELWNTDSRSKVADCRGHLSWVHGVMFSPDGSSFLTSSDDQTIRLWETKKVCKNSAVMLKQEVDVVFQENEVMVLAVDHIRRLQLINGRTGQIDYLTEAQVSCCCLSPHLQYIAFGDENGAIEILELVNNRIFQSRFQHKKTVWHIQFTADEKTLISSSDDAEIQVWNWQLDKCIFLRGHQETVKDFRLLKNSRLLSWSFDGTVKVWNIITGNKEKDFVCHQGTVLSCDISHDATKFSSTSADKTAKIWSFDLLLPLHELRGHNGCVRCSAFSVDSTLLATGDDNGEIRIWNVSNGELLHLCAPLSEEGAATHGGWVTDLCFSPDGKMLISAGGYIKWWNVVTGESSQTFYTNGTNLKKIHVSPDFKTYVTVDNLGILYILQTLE
Nature of the experiment: In vitro apoptosome formation inhibition assay. Type of experiment: biochemical. The settings on record: compound at 10 μM; rApaf-1 40 nM, dATP/Mg 100 μM, horse cytochrome c 0.1 μM, rprocaspase-9 0.1 μM; caspase-9 substrate Ac-LEDH-afc, afc release at 37° C. As for the experimental part: Recombinant Apaf-1 produced in insect cells (rApaf-1) was incubated in the presence (at a concentration of 10 μM) or absence (as control) of the compounds to be evaluated in the assay buffer (20 mM Hepes-KOH pH 7.5, 10 mM KCl, 1.5 mM MgCl2, 1 mM EDTA, 1 mM EGTA, 1 mM DTT, 0.1 mM PMSF) for 15 minutes at 30° C. The final rApaf-1 concentration was 40 nM. dATP/Mg (Sigma) and purified horse cytochrome c (Sigma) were then added achieving final concentrations of 100 μM and 0.1 μM, respectively. It was incubated for 60 minutes at 30° C. and recombinant procaspase-9 produced in E. coli (rprocaspase-9, final concentration 0.1 μM) was then added and it was incubated for 10 minutes at 30° C. before adding the caspase-9 fluorogenic substrate Ac-LEDH-afc (final concentration 50 μM). The total assay volume was 200 μL. The caspase activity was continuously monitored by means of the afc release at 37° C. in a Wallac 1420 Workstation (λexc=390 nm, λem=510 nm).
The activity values of some compounds described in the examples are indicated in the following table expressed as the percentage of Apaf-1 inhibition.

SMILES strings stand for the structures.

As a reminder, the inhibition is the share of the control response that was lost under treatment. Regarding `NC(=O)CN(CCc1ccccn1)C(=O)CC1C(=O)N(CCc2ccc(Cl)cc2Cl)CC(=O)N1CCC(c1ccccc1)c1ccccc1` (stereo not shown) [I.1.16, N-(2-amino-2-oxoethyl)-2-(4-(2,4-dichlorophenethyl)-1-(3,3-diphenylpropyl)-3,6-dioxopiperazin-2-yl)-N-(2-(pyridin-2-yl)ethyl)acetamide], the inhibition at 10 µM stood at 46%.

On to `CCC(C)N(CC(N)=O)C(=O)CC1C(=O)N(CCc2ccc(Cl)cc2Cl)CC(=O)N1CCC(c1ccccc1)c1ccccc1` (stereo not shown) [I.1.20, N-(2-amino-2-oxoethyl)-N-(sec-butyl)-2-(4-(2,4-dichlorophenethyl)-1-(3,3-diphenylpropyl)-3,6-dioxopiperazin-2-yl)acetamide], for which the inhibition at 10 µM was 36%.

Take `NC(=O)CN(CCc1ccc(Cl)cc1Cl)C(=O)CC1C(=O)N(CCc2ccc(Cl)cc2Cl)CC(=O)N1CCc1ccc(-c2ccccc2)cc1` (stereo not shown) [Ia.6.2, 2-(1-(2-([1,1′-biphenyl]-4-yl)ethyl)-4-(2,4-dichlorophenethyl)-3,6-dioxopiperazin-2-yl)-N-(2-amino-2-oxoethyl)-N-(2,4-dichlorophenethyl)acetamide]: the inhibition at 10 µM worked out at 29%.

Regarding `O=C(O)CN(CCc1ccc(Cl)cc1Cl)C(=O)CC1C(=O)N(CCc2ccc(Cl)cc2Cl)CC(=O)N1CCC(c1ccccc1)c1ccccc1` (stereo not shown) [Ib.1.2, 2-(N-(2,4-dichlorophenethyl)-2-(4-(2,4-dichlorophenethyl)-1-(3,3-diphenylpropyl)-3,6-dioxopiperazin-2-yl)acetamido) acetic acid], the inhibition at 10 µM came to 72%.

As for `O=C(O)CN(CCc1ccc(Cl)cc1Cl)C(=O)CC1C(=O)N(CCc2ccc(Cl)cc2Cl)CC(=O)N1Cc1ccc(F)cc1` (stereo not shown) [Ib.2.2, 2-(N-(2,4-dichlorophenethyl)-2-(4-(2,4-dichlorophenethyl)-1-(4-fluorobenzyl)-3,6-dioxopiperazin-2-yl)acetamido) acetic acid], the inhibition at 10 µM amounted to 28%.

Turning to `O=C(O)CN(CCc1ccc(Cl)cc1Cl)C(=O)CC1C(=O)N(CCc2ccc(Cl)cc2Cl)CC(=O)N1CCc1c[nH]c2ccccc12` (stereo not shown) [Ib.3.2, 2-(2-(1-(2-(1H-indol-3-yl)ethyl)-4-(2,4-dichlorophenethyl)-3,6-dioxopiperazin-2-yl)-N-(2,4-dichlorophenethyl)acetamido) acetic acid], the inhibition at 10 µM stood at 48%.

Consider `COC(=O)CN(CCc1ccc(Cl)cc1Cl)C(=O)CC1C(=O)N(CCc2ccc(Cl)cc2Cl)CC(=O)N1CCc1c[nH]c2ccccc12` (stereo not shown) [Ic.3.2, Methyl 2-(2-(1-(2-(1H-indol-3-yl)ethyl)-4-(2,4-dichlorophenethyl)-3,6-dioxopiperazin-2-yl)-N-(2,4-dichlorophenethyl)acetamido)acetate], for which the inhibition at 10 µM was found to be 29%.

As to `COC(=O)CN(CCc1ccc(Cl)cc1Cl)C(=O)CC1C(=O)N(CCc2ccc(Cl)cc2Cl)CC(=O)N1CCc1c[nH]c2ccc(OC)cc12` (stereo not shown) [Ic.5.2, Methyl 2-(N-(2,4-dichlorophenethyl)-2-(4-(2,4-dichlorophenethyl)-1-(2-(5-methoxy-1H-indol-3-yl)ethyl)-3,6-dioxopiperazin-2-yl)acetamido)acetate], the inhibition at 10 µM stood at 23%.

Consider `COc1ccc2[nH]cc(CCN3C(=O)CN(CCc4ccc(Cl)cc4Cl)C(=O)C3CC(=O)NCCc3ccc(Cl)cc3Cl)c2c1` (stereo not shown) [Id.5.2, N-(2,4-dichlorophenethyl)-2-(4-(2,4-dichlorophenethyl)-1-(2-(5-methoxy-1H-indol-3-yl)ethyl)-3,6-dioxopiperazin-2-yl)acetamide], for which the inhibition at 10 µM came out at 40%.

For `NCCCCC(NC(=O)CN(CCc1ccc(Cl)cc1Cl)C(=O)CC1C(=O)N(CCc2ccc(Cl)cc2Cl)CC(=O)N1CCC(c1ccccc1)c1ccccc1)C(N)=O` (stereo not shown) [If.1.2, 6-amino-2-(2-(N-(2,4-dichlorophenethyl)-2-(4-(2,4-dichlorophenethyl)-1-(3,3-diphenylpropyl)-3,6-dioxopiperazin-2-yl)acetamido)acetamido)hexanamide], the inhibition at 10 µM amounted to 80%.
